Reference: patent publication US9586945B2, “Aminochromane, aminothiochromane and amino-1,2,3,4-tetrahydroquinoline derivatives, pharmaceutical compositions containing them, and their use in therapy” (AbbVie Deutschland GmbH & Co. KG, priority 2013, dated 2017)

Assays:
human GlyT1c transporter = human GlyT1c transporter (Homo sapiens (Human), UniProt P48067); test: Radioligand binding assay using recombinant CHO cell membranes expressing human GlyT1; details: examples marked * tested as fumarate salts, read-out: radioligand binding Kiapp
Chain of human GlyT1c transporter (P48067 whole entry): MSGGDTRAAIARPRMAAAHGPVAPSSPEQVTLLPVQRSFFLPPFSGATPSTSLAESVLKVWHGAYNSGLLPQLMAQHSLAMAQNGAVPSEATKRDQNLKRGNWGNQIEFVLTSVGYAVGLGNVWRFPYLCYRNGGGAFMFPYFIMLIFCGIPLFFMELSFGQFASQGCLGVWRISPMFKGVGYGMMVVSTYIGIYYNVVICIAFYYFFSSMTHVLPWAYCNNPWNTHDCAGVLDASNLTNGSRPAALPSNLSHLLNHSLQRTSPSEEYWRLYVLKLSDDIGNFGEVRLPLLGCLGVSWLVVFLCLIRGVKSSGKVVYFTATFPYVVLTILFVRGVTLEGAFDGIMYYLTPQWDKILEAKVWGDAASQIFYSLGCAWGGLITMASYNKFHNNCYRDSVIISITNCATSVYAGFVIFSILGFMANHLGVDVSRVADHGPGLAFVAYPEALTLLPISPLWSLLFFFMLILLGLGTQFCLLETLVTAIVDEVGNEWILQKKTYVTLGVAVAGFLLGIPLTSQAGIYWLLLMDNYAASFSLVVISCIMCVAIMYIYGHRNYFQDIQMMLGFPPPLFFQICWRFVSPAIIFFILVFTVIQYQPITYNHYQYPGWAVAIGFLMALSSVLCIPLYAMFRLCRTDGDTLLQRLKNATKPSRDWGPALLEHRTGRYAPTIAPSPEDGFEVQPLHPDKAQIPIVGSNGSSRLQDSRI

[1] = Metabolic stability in human liver microsomes; type: in vitro ADME; details: 0.5 μM test substance, NADPH, 37° C., scaled microsomal clearance, examples marked * tested as fumarate salts
Description: Metabolic stability was determined as follows:
0.5 μM test substance was preincubated together with human liver microsomes (0.25 mg of microsomal protein/[…]) in 0.05 M potassium phosphate buffer of pH 7.4 in microtiter plates at 37° C. for 5 min. The reaction was started by adding NADPH (1.0 mM). After 0, 5, 10, 15, 20 and 30 min the reaction was stopped and cooled with twice the amount of quench solution consisting of acetonitrile/methanol 1:1, and containing 0.2 μM carbutamide. The samples were frozen until analyzed. The remaining concentration of undegraded test substance was determined by LC MSMS. The half-life (T1/2) was determined from the gradient of the signal of test substance/unit time plot, al-lowing to calculate the half-life of the test substance, assuming first order kinetics, from the de-crease in the concentration of the compound with time. The microsomal clearance (mClint) was calculated as follows: mClint=((ln(2)/t1/2)/Microsomal Protein Concentration (mg/ml))*1000, leading to the unit of uL/min/mg. The scaled clearance (mClin_scaled) was calculated as mCLint_scaled=m CLint*(Microsomal Yield (mg/kg BW))/1000000*60, leading to the units L/hr/kg. The Microsomal Yield is defined by the specifics of the used microsomes. Calculations were modified from references: Di, The Society for Biomolecular Screening, 2003, 453-462; Obach, DMD, 1999 vol 27. N 11, 1350-1359.

Row | Ki (human GlyT1c transporter) [nM] | human mCl [1] | Structure (SMILES)
1 | ≤ 1000 | ≦5 L/h/Kg | CCCS(=O)(=O)NC1CN(c2ccc3c(c2)[C@H](Cc2ccccc2)[C@H](NCC2CC2)CO3)C1 (relative stereo) [Example 31, Cis-N-(1-(4-benzyl-3-((cyclopropylmethyl)amino)chroman-6-yl)azetidin-3-yl)propane-1-sulfonamide]
2 | ≤ 10 | ≦5 L/h/Kg | CCCS(=O)(=O)NC1CN(c2ccc3c(c2)C(Cc2ccccc2)C(NC)CO3)C1 (single isomer, unassigned) [Example 22, Cis-N-(1-(4-benzyl-3-(methylamino)chroman-6-yl)azetidin-3-yl)propane-1-sulfonamide]
3 | ≤ 1000 | ≦5 L/h/Kg | CNC1COc2ccc(N3CC(NS(=O)(=O)CC4CC4)C3)cc2C1Cc1ccccc1 (single isomer, unassigned) [Example 25, Cis-N-(1-(4-benzyl-3-(methylamino)chroman-6-yl)azetidin-3-yl)-1-cyclopropylmethanesulfonamide]
4 | ≤ 10 | ≦50 L/h/Kg | CCCS(=O)(=O)NC1CN(c2cc3c(cc2F)OCC(NC)C3Cc2ccccc2)C1 (single isomer, unassigned) [Example 27, Cis-N-(1-(4-benzyl-7-fluoro-3-(methylamino)chroman-6-yl)azetidin-3-yl)propane-1-sulfonamide]
5 | ≤ 100 | ≦5 L/h/Kg | CCCS(=O)(=O)NC1CN(c2cc3c(cc2F)OCC(NC)C3Cc2ccccc2)C1 (single isomer, unassigned) [Example 28, Cis-N-(1-(4-benzyl-7-fluoro-3-(methylamino)chroman-6-yl)azetidin-3-yl)propane-1-sulfonamide]

More lines, now with the values behind:

Row | Structure (SMILES) | Ki (human GlyT1c transporter) [nM] | human mCl [1]
6 | CCCN[C@@H]1COc2ccc(N3CC(NS(=O)(=O)CCC)C3)cc2[C@@H]1Cc1ccccc1 (relative stereo) [Example 29, Cis-N-(1-(4-benzyl-3-(propylamino)chroman-6-yl)azetidin-3-yl)propane-1-sulfonamide] | ≤ 100 | ≦5 L/h/Kg
7 | CCCS(=O)(=O)NC1CN(c2ccc3c(c2)[C@H](Cc2ccccc2)[C@H](N(CC)CC)CO3)C1 (relative stereo) [Example 30, Cis-N-(1-(4-benzyl-3-(diethylamino)chroman-6-yl)azetidin-3-yl)propane-1-sulfonamide] | ≤ 100 | ≦50 L/h/Kg
8 | CCCS(=O)(=O)NC1CN(c2ccc3c(c2)[C@H](Cc2ccccc2)[C@H](NC2CCC2)CO3)C1 (relative stereo) [Example 32, Cis-N-(1-(4-benzyl-3-(cyclobutylamino)chroman-6-yl)azetidin-3-yl)propane-1-sulfonamide] | ≤ 1000 | ≦5 L/h/Kg
9 | CCCS(=O)(=O)NC1CN(c2ccc3c(c2)C(Cc2ccccc2)C(NC)CO3)C1 (single isomer, unassigned) [Example 23, Cis-N-(1-(4-benzyl-3-(methylamino)chroman-6-yl)azetidin-3-yl)propane-1-sulfonamide] | ≤ 1000 | ≦50 L/h/Kg
10 | CNC1COc2ccc(N3CC(NS(=O)(=O)CC4CC4)C3)cc2C1Cc1ccccc1 (single isomer, unassigned) [Example 24, Cis-N-(1-(4-benzyl-3-(methylamino)chroman-6-yl)azetidin-3-yl)-1-cyclopropylmethanesulfonamide] | ≤ 10 | ≦50 L/h/Kg
11 | Cn1cnc(S(=O)(=O)NC2CN(c3ccc4c(c3)C(Cc3ccccc3)C(N3CCC3)CO4)C2)c1 (stereo not shown) [Example 1, N-[1-[3-(azetidin-1-yl)-4-benzyl-chroman-6-yl]azetidin-3-yl]-1-methyl-imidazole-4-sulfonamide] | ≤ 10 | ≦5 L/h/Kg
